In US8628806B2, “Hypolipidemic composition and its use” (Hangzhou Minsheng Pharmaceutical Co., Ltd., priority 2006, dated 2014):

Key:
[1] = tested on: hyperlipidemia mice; test: Example 14 lipid lowering screening test in yolk emulsion hyperlipidemia mice; assay type: in vivo; details: hyperlipidemia ICR mice; ig once daily 7 days; dose 20 mg/kg; X±SD, 10 animals
Method: As described before, the test medicine is the mixture of H series and B series in the ratio H:B (3:1). Recommended dose (for animal) is: […] the recommended does is 200 mg/kg. • Test medicine 1: H1+B1, ig 0.2 ml/10 g; • Test medicine 2: H2+B1, ig 0.2 ml/10 g; • Test medicine 3: H3+B1, ig 0.2 ml/10 g; • Test medicine 4: H4+B1, ig 0.2 ml/10 g; • Test medicine 5: H5+B1, ig 0.2 ml/10 g; • Test medicine 6: H1+B2, ig 0.2 ml/10 g; • Test medicine 7: H2+B2, ig 0.2 ml/10 g; • Test medicine 8: H3+B2, ig 0.2 ml/10 g; • Test medicine 9: H4+B2, ig 0.2 ml/10 g; • Test medicine 10: H5+B2, ig 0.2 ml/10 g; • Test medicine 11: HB ig 0.2 ml/10 g.
130 SPF ICR mice were employed with the body weight 20±2 g, half are male and the other half are female. Provided by Zhejiang Province Experimental Animal Center, Licence: SCXK(ZHE)2003-0001
(§1) 90 ml yolk and 30 ml physiological Saline were mixed thoroughly in electric mixer to form emulsion, which was stored at 4° C. for further use.
(§2) 140 ICR mice were randomly divided into 14 groups: test medicine 1, test medicine 2, test medicine 3, test medicine 4, test medicine 5, test medicine 6, test medicine 7, test medicine 8, test medicine 9, test medicine 10, test medicine 11, postive control group (Zocor), model control group and normal control group, 10 mice for each group, half male and half female. Once daily for a continous 7-day period, the model control group and normal control group were provided with same volume of distilled water, while the other groups were administered with medicines by gastric perfusion. 2 hours after the last gastric perfusion, except of the normal control group, fresh yolk emulsion was intraperitoneally injected to the rest 13 groups of mice, 0.5 ml for a single animal. After 20 hours, eye ball was plucked and blood was collected, make sure 12 hours fasting before the collection. The content of total cholesterol (TC), triglyceride (TG) and high density lipoprotein (HDL-C) of the serum were measured.
EXCEL was employed to analyze the significant difference between the groups. The result is shown in X±SD.

[2] = tested on: hyperlipidemia mice; test: Example 15 hypolipidemic effect of peony/Codonopsis extract ratios in yolk emulsion hyperlipidemia mice; assay type: in vivo; details: hyperlipidemia ICR mice
Method: Group H1 and B1 were mixed in different ratios (see Table 8) and formulated into different test medicines. Recommended dose (animal): H1+B1=200 mg/kg body weight, ig dose is 0.2 ml/10 g body weight. [table] 100 SPF ICR mice were employed with the body weight 20±2 g, half are male and the other half are female. Provided by Zhejiang Province Experimental Animal Center, Licence: SCXK(ZHE)2003-0001 90 ml yolk and 30 ml physiological Saline were mixed thoroughly in electric mixer to form emulsion, which was stored at 4° C. for further use. […]: test medicine 1-23 groups, postive control group (Zocor), model control group and normal control group, 10 mice for each group, half male and half female. […] The content of total cholesterol (TC), triglyceride (TG) and high density lipoprotein (HDL-C) of the serum were measured. T test was employed to analyze the significant difference between the groups. The result is shown in X±SD.

[3] = tested on: hyperlipidemia mice; test: Example 16 dose screening of H1+B1 (4:1) in yolk emulsion hyperlipidemia mice; assay type: in vivo, ICR mice; details: dose 20 mg/kg ig once daily 7 days; X±SD, 10 animals
Method: H1 is peony extract obtained from Example 1. B1 is Codonopsis extract obtained from Example 7. The test medicines are mixtures of H1 and B1 with the ratio of 4:1 (the weight ratio of peony extract and Codonopsis extract is 2.7:1).
80 SPF ICR mice were employed with the body weight 20±2 g, half are male and the other half are female. Provided by Zhejiang Province Experimental Animal Center, Licence: SCXK(ZHE)2003-0001
as §1
as §2, with “80 ICR” for “140 ICR”, “into 8” for “into 14”, “5,” for “5, test medicine 6, test medicine 7, test medicine 8, test medicine 9, test medicine 10, test medicine 11,”, “a continuous” for “a continous”, “except for” for “except of”, “rest 7” for “rest 13”
T test was employed to analyze the significant difference between the groups. The result is shown in X±SD.

[4] = ig once daily 7 days, dose 20 mg/kg, X±SD, 10 animals
[5] = test medicines 200 mg/kg, positive control 20 mg/kg, ig 7 days

CCC(C)(C)C(=O)O[C@H]1C[C@@H](C)C=C2C=C[C@H](C)[C@H](CC[C@@H]3C[C@@H](O)CC(=O)O3)[C@H]21 [positive control group] was tested, and the “HDL-C (serum high density lipoproteincholesterol content)” value [1] was 1.39 ± 0.23 mmol/L, the HDL-C/TC [1] was 0.18 ± 0.05 and the “TC (total serum cholesterol content)” value [1] was 8.58 ± 4.18 mmol/L. The “TG (serum triglyceride content)” value [1] was 7.78 ± 5.36 mmol/L, the “HDL-C (serum high density lipoproteincholesterol content)” value [2, 4] was 1.59 ± 0.13 mmol/L and the HDL-C/TC [2, 4] was 0.22 ± 0.08. The “TC (total serum cholesterol content)” value [2, 4] was 8.03 ± 3.12 mmol/L, the “TG (serum triglyceride content)” value [2, 4] was 8.57 ± 4.20 mmol/L and the “TC compared with model control group” value [2, 5] was “lower TC, with significant difference (P<0.05)”. The “TG compared with model control group” value [2, 5] was “lower TG, with significant difference (P<0.05)”, the “HDL-C (serum high density lipoproteincholesterol content)” value [3] was 1.35 ± 0.15 mmol/L and the HDL-C/TC [3] was 0.26 ± 0.06. The “TC (total serum cholesterol content)” value [3] was 5.97 ± 2.40 mmol/L and the “TG (serum triglyceride content)” value [3] was 4.31 ± 3.28 mmol/L.
